Measured values from patent publication US10654845B2, “2-(het)aryl-substituted fused bicyclic heterocycle derivatives as pesticides” (BAYER CROPSCIENCE AKTIENGESELLSCHAFT, priority 2015, dated 2020).

Columns and labels:
Musca domestica = Musca domestica test; type: in vivo; conditions: 100 ppm, after 2 days, adult houseflies
Procedure: (§1) Solvent: dimethyl sulphoxide
(§2) To produce a suitable preparation of active compound, 10 mg of active compound are mixed with 0.5 ml of dimethyl sulphoxide, and the concentrate is diluted with water to the desired concentration.
Vessels containing a sponge treated with sugar solution and the active compound preparation of the desired concentration are populated with 10 adult houseflies (Musca domestica).
After 2 days, the kill in % is determined. 100% means that all of the flies have been killed; 0% means that none of the flies have been killed.

[1] = log P by HPLC on reversed-phase column (C18), EEC Directive 79/831 Annex V.A8; conditions: pH 2.7
Excerpt: Called log P (HCOOH) in the table.
Called log P (neutral) in the table.

Lucilia cuprina = Lucilia cuprina test; type: in vivo; conditions: 100 ppm, after 2 days, L1 larvae
Procedure: as §1, §2
About 20 L1 larvae of the Australian sheep blowfly (Lucilia cuprina) are transferred into a test vessel containing minced horsemeat and the active compound preparation of the desired concentration.
After 2 days, the kill in % is determined. 100% means that all the larvae have been killed; 0% means that no larvae have been killed.

Myzus persicae = Myzus persicae spray test (bell pepper plants); type: in vivo; conditions: 100 ppm, after 6 days
Procedure: Myzus persicae Spray Test
Solvent: 7 parts by weight of dimethylformamide
Emulsifier: alkylaryl polyglycol ether
To produce a suitable preparation of active compound, 1 part by weight of active compound is dissolved using the stated parts by weight of solvent and made up with water containing an emulsifier concentration of 1000 ppm until the desired concentration is attained. To produce further test concentrations, the preparation is diluted with emulsifier-containing water. If the addition of ammonium salts or/and penetrants is required, these are each added in a concentration of 1000 ppm to the formulation solution.
Bell pepper plants (Capsicum annuum) severely infested with the green peach aphid (Myzus persicae) are treated by spraying with the active compound preparation in the desired concentration.
After 6 days, the kill in % is determined. 100% means that all of the aphids have been killed; 0% means that none of the aphids have been killed.

Phaedon cochleariae = Phaedon cochleariae spray test; type: in vivo; conditions: 500 g/ha, after 7 days, beetle larvae killed
Method in brief: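 Compound dissolved in acetone/dimethylformamide and diluted with water containing 1000 ppm alkylaryl polyglycol ether emulsifier to test concentrations, applied as a spray. Efficacy (% beetle larvae killed) assessed after 7 days.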

Ctenocephalides felis [2] = experiment: Ctenocephalides felis in vitro contact tests with adult cat fleas; type: in vivo; conditions: 5 μg/cm^2 (500 g/ha), after 48 h
Procedure: Ctenocephalides felis—In Vitro Contact Tests with Adult Cat Fleas
For the coating of the test tubes, 9 mg of active compound are first dissolved in 1 ml of acetone p.a. and then diluted to the desired concentration with acetone p.a. 250 μl of the solution are distributed homogeneously on the inner walls and the base of a 25 ml test tube by turning and rocking on an orbital shaker (rocking rotation at 30 rpm for 2 h). With 900 ppm active compound solution and internal surface 44.7 cm^2, given homogeneous distribution, an area-based dose of 5 μg/cm^2 is achieved.
After the solvent has evaporated off, the tubes are populated with 5-10 adult cat fleas (Ctenocephalides felis), sealed with a perforated plastic lid and incubated in a horizontal position at room temperature and ambient humidity. After 48 h, efficacy is determined. To this end, the test tubes are stood upright and the fleas are knocked to the base of the tube. Fleas which remain motionless at the base or move in an uncoordinated manner are considered to be dead or moribund.
100% efficacy means that all the fleas were dead or moribund. 0% efficacy means that no fleas were harmed.

Boophilus microplus = Boophilus microplus injection test; type: in vivo; conditions: 20 μg/animal, assessed after 7 days
Procedure: Boophilus microplus-Injection Test
as §1
To produce a suitable preparation of active compound, 10 mg of active compound are mixed with 0.5 ml of solvent and the concentrate is diluted with solvent to the desired concentration.
1 μl of the active compound solution is injected into the abdomen of 5 engorged adult female cattle ticks (Boophilus microplus). The animals are transferred into dishes and kept in a climate-controlled room.
Efficacy is assessed after 7 days by laying of fertile eggs. Eggs which are not visibly fertile are stored in a climate-controlled cabinet until the larvae hatch after about 42 days. An efficacy of 100% means that none of the ticks has laid any fertile eggs; 0% means that all the eggs are fertile.

Ctenocephalides felis [3] = experiment: Ctenocephalides felis oral test; type: in vivo; conditions: 100 ppm, after 2 days
Procedure: Ctenocephalides felis-Oral Test
as §1
To produce a suitable preparation of active compound, 10 mg of active compound are mixed with 0.5 ml of dimethyl sulphoxide. Dilution with citrated cattle blood gives the desired concentration.
About 20 unfed adult cat fleas (Ctenocephalides felis) are placed into a chamber which is closed at the top and bottom with gauze. A metal cylinder whose bottom end is closed with parafilm is placed onto the chamber. The cylinder contains the blood/active compound preparation, which can be imbibed by the fleas through the parafilm membrane.
After 2 days, the kill in % is determined. 100% means that all of the fleas have been killed; 0% means that none of the fleas have been killed.

logP-acidic [1]: 2.43
Compound: CCS(=O)(=O)c1ccc(NC(=O)C2CC2)nc1-c1nc2cc(C(F)(F)F)ncc2n1C [Example 22]
kill in % (Musca domestica): 100% | kill in % (Lucilia cuprina): 90% | kill in % (Myzus persicae): 100% | efficacy in % (Phaedon cochleariae): 100% | efficacy (dead or moribund fleas) (Ctenocephalides felis [2]): 100% | efficacy (laying of fertile eggs) (Boophilus microplus): 80% | kill in % (Ctenocephalides felis [3]): 100%
